Measured values: patent US7049289B1, “Labelled glutamine and lysine analogues” (Amersham PLC, priority 1998, dated 2006)
Entries after “also recorded” stand apart in the source; their conditions may differ.

Experiments:
[1] = target: T1, fibrin (in vitro human plasma clot) (Homo sapiens, UniProt P02671+P02675+P02679); experiment: Incorporation into human plasma clots in vitro; type: biochemical; details: for % specific uptake: % retained (with thrombin) - % retained (no thrombin); for % retained (no thrombin): control without thrombin and calcium chloride (non-specific binding); for % retained (with thrombin): human plasma clot, 60 minutes, ca. 20° C.
T1 construct: about 400 μl of human plasma containing the radiolabelled substrate; from tissue; host or cells: human plasma, clotted in vitro with added thrombin and calcium chloride
T1 sequence (P02671 20-644 isoform P02671-2 limits assumed): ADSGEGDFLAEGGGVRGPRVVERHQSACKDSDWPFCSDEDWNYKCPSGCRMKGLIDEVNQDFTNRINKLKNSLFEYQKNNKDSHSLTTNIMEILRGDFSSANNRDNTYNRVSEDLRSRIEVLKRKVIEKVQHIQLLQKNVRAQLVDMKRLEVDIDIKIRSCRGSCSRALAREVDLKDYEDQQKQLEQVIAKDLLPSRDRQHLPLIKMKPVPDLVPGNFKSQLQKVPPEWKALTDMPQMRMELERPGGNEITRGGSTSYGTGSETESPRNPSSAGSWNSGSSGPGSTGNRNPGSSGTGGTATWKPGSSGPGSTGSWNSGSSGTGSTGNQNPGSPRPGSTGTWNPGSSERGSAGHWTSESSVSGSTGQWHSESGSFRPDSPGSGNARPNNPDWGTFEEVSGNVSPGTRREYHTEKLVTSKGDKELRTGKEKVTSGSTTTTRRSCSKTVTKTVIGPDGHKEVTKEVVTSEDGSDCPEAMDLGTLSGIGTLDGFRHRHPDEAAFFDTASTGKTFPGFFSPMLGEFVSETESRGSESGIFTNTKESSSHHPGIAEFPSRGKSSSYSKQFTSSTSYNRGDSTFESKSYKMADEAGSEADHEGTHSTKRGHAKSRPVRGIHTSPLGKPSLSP
T1 sequence (P02675 45-491 limits assumed): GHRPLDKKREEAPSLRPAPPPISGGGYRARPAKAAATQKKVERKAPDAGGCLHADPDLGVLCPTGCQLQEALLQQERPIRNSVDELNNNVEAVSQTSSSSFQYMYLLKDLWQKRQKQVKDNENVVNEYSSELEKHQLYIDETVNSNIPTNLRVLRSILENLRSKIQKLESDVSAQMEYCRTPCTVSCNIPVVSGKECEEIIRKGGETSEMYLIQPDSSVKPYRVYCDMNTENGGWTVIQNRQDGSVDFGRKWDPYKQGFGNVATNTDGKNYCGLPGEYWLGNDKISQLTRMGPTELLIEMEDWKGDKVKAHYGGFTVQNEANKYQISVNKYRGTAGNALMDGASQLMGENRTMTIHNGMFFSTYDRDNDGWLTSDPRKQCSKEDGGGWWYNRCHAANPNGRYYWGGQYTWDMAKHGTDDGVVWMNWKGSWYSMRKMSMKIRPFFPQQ
T1 sequence (P02679 27-437 isoform P02679-2 limits assumed): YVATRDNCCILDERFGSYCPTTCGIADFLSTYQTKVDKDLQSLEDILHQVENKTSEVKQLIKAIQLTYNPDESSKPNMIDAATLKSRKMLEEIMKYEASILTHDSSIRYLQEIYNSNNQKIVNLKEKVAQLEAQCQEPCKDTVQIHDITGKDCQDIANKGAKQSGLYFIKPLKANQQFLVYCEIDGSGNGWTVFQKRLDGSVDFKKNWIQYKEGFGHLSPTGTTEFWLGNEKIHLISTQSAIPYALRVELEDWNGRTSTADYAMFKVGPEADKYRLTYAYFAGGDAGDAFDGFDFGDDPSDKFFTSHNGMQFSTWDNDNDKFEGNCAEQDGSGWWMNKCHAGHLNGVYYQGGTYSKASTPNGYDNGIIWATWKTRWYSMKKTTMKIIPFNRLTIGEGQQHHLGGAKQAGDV
Protocol: Incorporation of radiolabelled substrates into fibrin was investigated by induction of an in vitro human plasma clot in the following manner. To a siliconised 5 ml glass vial was added, (a) 800 μl of Tris(hydroxymethyl)aminomethane buffered saline pH 7.5 containing calcium chloride (50 mM Tris, 150 mM sodium chloride, 4 mM calcium chloride.), (b) about 40 μl of physiological salt solution containing 100 units of thrombin per ml, (c) about 400 μl of human plasma containing the radiolabelled substrate at a concentration of typically 10 kBq/ml. To aid induction of clot a roughened glass rod was added to the reaction vial. Control vials were prepared similarly but with the omission of thrombin and calcium chloride.
After incubation of the test solution at ambient laboratory temperature (ca. 20° C.) for 60 minutes the reaction was discontinued with the addition of about 400 μl of a cold solution of 33.5 mM ethylenediaminetetra-acetic acid disodium salt. Clots were separated from serum by vacuum filtration onto […] nitrocellulose filters (pre-soaked in 1.5% BSA/tris(hydroxymethyl)aminoethae buffered saline pH 7.5 containing 0.1% Tween 20) and washed with about 2×10 ml of tris(hydroxymethyl)aminomethane buffered saline pH 7.5 containing Tween 20 to a final concentration of 0.1% v/v. The proportion of total radioactivity was calculated by counting in suitable detection apparatus.
The fraction of radioactivity retained on the filter, after subtraction of the non-specific binding determined from the control, is a measure of incorporation into the filtered clots.

[2] = Incorporation into clots induced in a rat model (rat inferior vena cava model); type: in vivo, rat (Male Wistar); details: for % id/g (clot) / Rel. Conc. (cpm/g of clot by dose/g animal): sacrificed after 60 min
Protocol: The rats (Male Wistar, 250–350 g) were anaesthetised with 15% urethane. After laparotomy, the vena cava was isolated and freed of surrounding fat tissue. […] The compounds were injected 5 min (fresh clot) and 60 min (aged clot) post-induction. After 60 min the animals were sacrificed and the clot removed, weighed and counted. Other tissues e.g. blood, lung, heart, were also dissected and counted. The uptake of tracer into the clot was determined as the relative concentration (cpm/g of clot by dose/g animal) and clot to background tissue.

[3] = Aged Clots: injected 60 min post-induction
[4] = Fresh Clots: injected 5 min post-induction

Substance	% specific uptake [1] [%]	% retained (no thrombin) [1] [%]	% retained (with thrombin) [1] [%]	Clot/blood ([2]; Aged Clots)	Clot/heart ([2]; Aged Clots)	Clot/liver ([2]; Aged Clots)	Clot/lung ([2]; Aged Clots)	% id/g (clot) [2, 3] [% id/g]	Rel. Conc. (cpm/g of clot by dose/g animal) [2, 3]	Clot/blood ([2]; Fresh Clots)	Clot/heart ([2]; Fresh Clots)	Clot/liver ([2]; Fresh Clots)	Clot/lung ([2]; Fresh Clots)	% id/g (clot) [2, 4] [% id/g]	Rel. Conc. (cpm/g of clot by dose/g animal) [2, 4]	in vitro clot uptake (in words) [1]
Ac-LGPGQSKVIG-Pn44 (also: 99mTc complex) [^99mTc-Cmpd 45]	28.6	0.1	28.7	8	11	3	5	2.0 ± 0.8	5.7 ± 2.3	6	10	3	5	2.0 ± 0.5	5.5 ± 1.3	–
Ac-NAEAVSPYTLLKG-Pn216 (also: 99mTc complex) [^99mTc-Cmpd 14]	2.8	0.5	3.3	1.4	2	0.7	1.3	0.6 ± 0.4	1.4 ± 0.8	2	3	0.7	1.5	0.5 ± 0.1	1.2 ± 0.2	significant reduction in uptake; also recorded: large drop in uptake
Ac-NQEAVSPYTLLKG-Pn216 (also: 99mTc complex) [^99mTc-Cmpd 13]	56.8	0.2	57.0	6	29	19	9	4.5 ± 1.5	10.4 ± 3.0	7	18	18	8	3.4 ± 0.7	7.9 ± 1.6	–
Ac-NQEQ(D-V)(D-S)(D-P)(D-Y)(D-T)(D-L)(D-L)(D-K)G-Pn44 [^99mTc-Cmpd 35]	15.3	0.6	15.9	1	1	2	0.5	0.6 ± 0.1	1.5 ± 0.4	2	4	2	2	1.2 ± 0.2	3.7 ± 0.8	–
Ac-NQEQ(D-V)(D-S)P(D-Y)TLL(D-K)G-Pn216 [^99mTc-Cmpd 31]	7.6	0.1	7.7	0.6	9	2	4	0.2 ± 0.1	0.6 ± 0.2	0.6	2	3	1	0.3 ± 0.2	0.9 ± 0.6	significant reduction in uptake
Ac-NQEQVSP(D-Y)TLL(D-K)G-Pn216 [^99mTc-Cmpd 29]	21.0	0.1	21.1	11	67	29	30	3.8 ± 0.4	10.0 ± 1.7	14	44	44	20	4.7 ± 1.9	13.0 ± 4.9	–
Ac-NQEQVSP(D-Y)TLL(D-K)βAla-Pn216 [^99mTc-Cmpd 33]	63.8	0.1	63.9	16	24	16	9	2.2 ± 0.6	6.7 ± 1.6	11	32	28	16	2.7 ± 0.2	7.8 ± 0.6	–
Ac-NQEQVSP(I2-Y)TLLKG-Pn216 [^99mTc-Cmpd 23]	63.7	0.1	63.8	13	1	1	1	7.5 ± 2.5	17.6 ± 4.6	6	17	21	6	7.6 ± 1.8	18.2 ± 4.1	–
Ac-NQEQVSP(I-Y)TLLKG-Pn216 [^99mTc-Cmpd 22]	58.7	0.3	59.0	11	3	4	1	6.9 ± 2.5	22.7 ± 7.4	11	28	25	13	3.8 ± 1.6	13.0 ± 5.5	–
Ac-NQEQVSP(pBr-F)TLLKG-Pn216 [^99mTc-Cmpd 21]	60.1	0.5	60.6	31	32	31	13	2.7 ± 2.3	8.5 ± 6.8	11	28	13	16	2.3 ± 1.3	7.4 ± 4.0	–
